Laboratory results reported in the NIST ThermoML archive (doi:10.1016/j.jct.2017.11.003).

How the values were obtained:
[1] = xn = mol fraction of the nth substance listed; details: 100 kPa, Liquid; for speed of sound: Frequency=2 MHz, Linear variable-path acoustic interferometer; for mass density: Vibrating tube method
[2] = 100 kPa, Liquid; for speed of sound: Frequency=2 MHz, Linear variable-path acoustic interferometer; for mass density: Vibrating tube method

CCCCCCCCCO [nonan-1-ol] + Cc1ccc(Cl)cc1
[1], x2 = 0
Details	mass density [kg/m3]	speed of sound [m/s]
293.15 K	828	1380.5
298.15 K	824	1364.7
303.15 K	821	1348.1
308.15 K	818	1330.5

ClCCCl [1,2-dichloroethane] + CCCCCCCCCO
[1], x1 = 1
Details	mass density [kg/m3]	speed of sound [m/s]
293.15 K	1253	1212.5
298.15 K	1246	1194.2
303.15 K	1238	1174.1
308.15 K	1231	1155.6

CCCCCCCCCO [nonan-1-ol]
[2]
Details	mass density [kg/m3]	speed of sound [m/s]
293.15 K	828	1380.5
298.15 K	824	1364.7
303.15 K	821	1348.1
308.15 K	818	1330.5

Cc1ccc(Cl)cc1 [4-chlorotoluene]
[2]
Details	mass density [kg/m3]	speed of sound [m/s]
293.15 K	1069	1306.4
298.15 K	1065	1288.2
303.15 K	1060	1270
308.15 K	1054	1252.1

Cc1cccc(Cl)c1 [3-chlorotoluene]
[2]
Details	mass density [kg/m3]	speed of sound [m/s]
293.15 K	1072	1313.8
298.15 K	1067	1296.5
303.15 K	1063	1279.5
308.15 K	1058	1261.2

Cc1ccccc1Cl [2-chlorotoluene]
[2]
Details	mass density [kg/m3]	speed of sound [m/s]
293.15 K	1082	1317
298.15 K	1077	1299.7
303.15 K	1073	1283.9
308.15 K	1068	1265.8

ClCCCl [1,2-dichloroethane]
[2]
Details	mass density [kg/m3]	speed of sound [m/s]
293.15 K	1253	1212.5
298.15 K	1246	1194.2
303.15 K	1238	1174.1
308.15 K	1231	1155.6

CCCCCCCCCO [nonan-1-ol] + Cc1cccc(Cl)c1
[1], x2 = 0
Details	mass density [kg/m3]	speed of sound [m/s]
293.15 K	828	1380.5
298.15 K	824	1364.7
303.15 K	821	1348.1
308.15 K	818	1330.5

CCCCCCCCCO [nonan-1-ol] + Cc1ccccc1Cl
[1], x2 = 0
Details	mass density [kg/m3]	speed of sound [m/s]
293.15 K	828	1380.5
298.15 K	824	1364.7
303.15 K	821	1348.1
308.15 K	818	1330.5
